Data taken from patent US20240002391A1, “4-ALKOXYPYRROLO[2,1-F][1,2,4]TRIAZINES AND PREPARATION AND USES THEREOF” (BioSplice Therapeutics, Inc., priority 2022, published 2024).

Target: recombinant DYRK1A kinase (Homo sapiens (Human), UniProt Q13627)
Assay: DYRK1A kinase assay (Ser/Thr 18 peptide Z-lyte FRET)
Format: biochemical
Conditions: DYRK1A kinase activity, Z-lyte Ser/Thr 18 peptide, 15 μM ATP; method text calls the value IC50; read-out: EC50 (the source's name)
In short: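 Z-lyte FRET: recombinant DYRK1A 0.25 μg/mL, ATP 15 μM, Ser/Thr 18 peptide 4 μM, with compound (11-point 1:3, 10 μM top) 1 h at room temperature, then development reagent 1 h. Coumarin/fluorescein emission ratio converted to % phosphorylation; IC50 by non-linear regression, duplicates.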

Compound | IC50
COc1nc(N[C@H]2CC[C@@H](NC(C)=O)CC2)nn2ccc(-c3ccn4nccc4c3)c12 [Compound 17, N-(cis-4-((4-methoxy-5-(pyrazolo[1,5-a]pyridin-5-yl)pyrrolo[2,1-f][1,2,4]triazin-2-yl)amino)cyclohexyl)acetamide] | 17.5 nM
COc1nc(N[C@H]2CN(C)C[C@H]2F)nn2ccc(-c3ccc4nccnc4c3)c12 [Compound 351, N-((3S,4R)-4-Fluoro-1-methylpyrrolidin-3-yl)-4-methoxy-5-(quinoxalin-6-yl)pyrrolo[2,1-f][1,2,4]triazin-2-amine] | 8.1 nM
COc1nc(N[C@H]2CC[C@@H](OCCO)CC2)nn2ccc(-c3ccc4nccnc4c3)c12 [Compound 343, 2-((cis-4-((4-Methoxy-5-(quinoxalin-6-yl)pyrrolo[2,1-f][1,2,4]triazin-2-yl)amino)cyclohexyl)oxy)ethan-1-ol] | 0.7 nM
COc1nc(N[C@H]2CCN(C)C[C@H]2F)nn2ccc(-c3ccn4nccc4c3)c12 [Compound 34, N-((3R,4S)-3-Fluoro-1-methylpiperidin-4-yl)-4-methoxy-5-(pyrazolo[1,5-a]pyridin-5-yl)pyrrolo[2,1-f][1,2,4]triazin-2-amine] | 6.2 nM
COc1nc(N[C@@H]2CCN(CCO)CC2(F)F)nn2ccc(-c3cc(F)c4nc(C)n(CC(F)F)c4c3)c12 [Compound 525, (R)-2-(4-((5-(1-(2,2-Difluoroethyl)-4-fluoro-2-methyl-1H-benzo[d]imidazol-6-yl)-4-methoxypyrrolo[2,1-f][1,2,4]triazin-2-yl)amino)-3,3-difluoropiperidin-1-yl)ethan-1-ol] | 2.4 nM
COc1nc(N[C@H]2CC[C@@](C)(O)CC2)nn2ccc(-c3ccc4nnn(CC(F)F)c4c3)c12 [Compound 724, (1s,4s)-4-((5-(1-(2,2-Difluoroethyl)-1H-benzo[d][1,2,3]triazol-6-yl)-4-methoxypyrrolo[2,1-f][1,2,4]triazin-2-yl)amino)-1-methylcyclohexan-1-ol] | 1.1 nM
COc1nc(N[C@@H]2CN(C3COC3)C[C@@H]2F)nn2ccc(-c3ccc4nnn(CC(F)F)c4c3)c12 [Compound 739, 5-(1-(2,2-Difluoroethyl)-1H-benzo[d][1,2,3]triazol-6-yl)-N-((3R,4S)-4-fluoro-1-(oxetan-3-yl)pyrrolidin-3-yl)-4-methoxypyrrolo[2,1-f][1,2,4]triazin-2-amine] | 4.6 nM
COc1nc(N[C@H]2C[C@@](C)(O)C2)nn2ccc(-c3cc4cnccc4[nH]3)c12 [Compound 281, cis-3-((4-Methoxy-5-(1H-pyrrolo[3,2-c]pyridin-2-yl)pyrrolo[2,1-f][1,2,4]triazin-2-yl)amino)-1-methylcyclobutan-1-ol] | 6.6 nM
COc1nc(N[C@@H]2CN(C3COC3)C[C@@H]2F)nn2ccc(-c3ccc4nc(C)n(CC(F)F)c4c3)c12 [Compound 506, 5-(1-(2,2-Difluoroethyl)-2-methyl-1H-benzo[d]imidazol-6-yl)-N-((3R,4S)-4-fluoro-1-(oxetan-3-yl)pyrrolidin-3-yl)-4-methoxypyrrolo[2,1-f][1,2,4]triazin-2-amine] | 2.3 nM
COc1nc(N[C@H]2C[C@](C)(C(=O)NC3CC3)C2)nn2ccc(-c3ccc4ncccc4c3)c12 [Compound 1039, trans-N-Cyclopropyl-3-((4-methoxy-5-(quinolin-6-yl)pyrrolo[2,1-f][1,2,4]triazin-2-yl)amino)-1-methylcyclobutane-1-carboxamide] | 1.7 nM
COc1nc(N[C@H]2C[C@@H]3CN(C(C)=O)C[C@@H]3C2)nn2ccc(-c3ccc4nccnc4c3)c12 [Compound 387, 1-((3aR,5s,6aS)-5-((4-Methoxy-5-(quinoxalin-6-yl)pyrrolo[2,1-f][1,2,4]triazin-2-yl)amino)hexahydrocyclopenta[c]pyrrol-2(1H)-yl)ethan-1-one] | 0.7 nM
COc1nc(N[C@@H]2CN(C)C[C@@H]2F)nn2ccc(-c3ccc4nnn(CC(F)F)c4c3)c12 [Compound 730, 5-(1-(2,2-Difluoroethyl)-1H-benzo[d][1,2,3]triazol-6-yl)-N-((3R,4S)-4-fluoro-1-methylpyrrolidin-3-yl)-4-methoxypyrrolo[2,1-f][1,2,4]triazin-2-amine] | 4.6 nM
COc1nc(N[C@H]2C[C@](C)(O)C2)nn2ccc(-c3ccc4nccnc4c3)c12 [Compound 330, trans-3-((4-Methoxy-5-(quinoxalin-6-yl)pyrrolo[2,1-f][1,2,4]triazin-2-yl)amino)-1-methylcyclobutan-1-ol] | 2.3 nM
COc1nc(N[C@H]2CC[C@@H](C(C)(C)O)CC2)nn2ccc(-c3ccc4nccnc4c3)c12 [Compound 341, 2-(cis-4-((4-methoxy-5-(quinoxalin-6-yl)pyrrolo[2,1-f][1,2,4]triazin-2-yl)amino)cyclohexyl)propan-2-ol] | 9.3 nM
COc1nc(N[C@H]2C[C@@](C)(NC(C)=O)C2)nn2ccc(-c3cc(F)c4nc(C)n(CC(F)F)c4c3)c12 [Compound 148, N-((1s,3s)-3-((5-(1-(2,2-Difluoroethyl)-4-fluoro-2-methyl-1H-benzo[d]imidazol-6-yl)-4-methoxypyrrolo[2,1-f][1,2,4]triazin-2-yl)amino)-1-methylcyclobutyl)acetamide] | 1.8 nM
COc1nc(N[C@@H]2C[C@@H]3CN(C(C)=O)C[C@@H]3C2)nn2ccc(-c3ccc4nnn(C)c4c3)c12 [Compound 228, 1-((3aR,5r,6aS)-5-((4-Methoxy-5-(1-methyl-1H-benzo[d][1,2,3]triazol-6-yl)pyrrolo[2,1-f][1,2,4]triazin-2-yl)amino)hexahydrocyclopenta[c]pyrrol-2(1H)-yl)ethan-1-one] | 3.4 nM
CCN1CC[C@@H](Nc2nc(OC)c3c(-c4ccc5nnn(C)c5c4)ccn3n2)C(F)(F)C1 [Compound 627, (R)—N-(1-Ethyl-3,3-difluoropiperidin-4-yl)-4-methoxy-5-(1-methyl-1H-benzo[d][1,2,3]triazol-6-yl)pyrrolo[2,1-f][1,2,4]triazin-2-amine] | 3.9 nM
COc1nc(N[C@H]2C[C@@](C)(NC(C)=O)C2)nn2ccc(-c3ccc4nnn(CC(F)(F)F)c4c3)c12 [Compound 905, N-((1s,3s)-3-((4-Methoxy-5-(1-(2,2,2-trifluoroethyl)-1H-benzo[d][1,2,3]triazol-6-yl)pyrrolo[2,1-f][1,2,4]triazin-2-yl)amino)-1-methylcyclobutyl)acetamide] | 0.4 nM
COc1nc(NC2CCN(C3COC3)CC2)nn2ccc(-c3ccn4nccc4c3)c12 [Compound 26, 4-Methoxy-N-(1-(oxetan-3-yl)piperidin-4-yl)-5-(pyrazolo[1,5-a]pyridin-5-yl)pyrrolo[2,1-f][1,2,4]triazin-2-amine] | 7.1 nM
COc1nc(NC2CCC3(CC2)COC3)nn2ccc(-c3ccc4nnn(C)c4c3)c12 [Compound 230, 4-Methoxy-5-(1-methyl-1H-benzo[d][1,2,3]triazol-6-yl)-N-(2-oxaspiro[3.5]nonan-7-yl)pyrrolo[2,1-f][1,2,4]triazin-2-amine] | 4.2 nM
COc1nc(N[C@H]2CC[C@H](OC)CC2)nn2ccc(-c3ccn4nccc4c3)c12 [Compound 10, 4-Methoxy-N-(trans-4-methoxycyclohexyl)-5-(pyrazolo[1,5-a]pyridin-5-yl)pyrrolo[2,1-f][1,2,4]triazin-2-amine] | 93.8 nM
COc1nc(N[C@H]2C[C@@](C)(N(C)C)C2)nn2ccc(-c3ccc4ncccc4c3)c12 [Compound 1043, cis-N3-(4-Methoxy-5-(quinolin-6-yl)pyrrolo[2,1-f][1,2,4]triazin-2-yl)-N1,N1,1-trimethylcyclobutane-1,3-diamine] | 2.8 nM
COc1nc(N[C@H]2CC[C@H](C(C)(C)O)CC2)nn2ccc(-c3ccc4nccnc4c3)c12 [Compound 342, 2-(trans-4-((4-Methoxy-5-(quinoxalin-6-yl)pyrrolo[2,1-f][1,2,4]triazin-2-yl)amino)cyclohexyl)propan-2-ol] | 3.2 nM
COc1nc(N[C@H]2CC[C@](C)(O)CC2)nn2ccc(-c3ccc4ncn(CC(F)F)c4c3)c12 [Compound 1139, (1r,4r)-4-((5-(1-(2,2-Difluoroethyl)-1H-benzo[d]imidazol-6-yl)-4-methoxypyrrolo[2,1-f][1,2,4]triazin-2-yl)amino)-1-methylcyclohexan-1-ol] | 0.5 nM
COc1nc(N[C@H]2C[C@@](C)(NC(C)=O)C2)nn2ccc(-c3ccc4ncccc4c3)c12 [Compound 288, N-(cis-3-((4-Methoxy-5-(quinolin-6-yl)pyrrolo[2,1-f][1,2,4]triazin-2-yl)amino)-1-methylcyclobutyl)acetamide] | 2.6 nM
COc1nc(N[C@H]2CC[C@](C)(O)CC2)nn2ccc(-c3ccc4nnn(C(C)C)c4c3)c12 [Compound 681, (1r,4r)-4-((5-(1-Isopropyl-1H-benzo[d][1,2,3]triazol-6-yl)-4-methoxypyrrolo[2,1-f][1,2,4]triazin-2-yl)amino)-1-methylcyclohexan-1-ol] | 1.9 nM
COc1nc(NC2CCC3(CC2)COC3)nn2ccc(-c3ccc4ncnn4c3)c12 [Compound 198, 5-([1,2,4]Triazolo[1,5-a]pyridin-6-yl)-4-methoxy-N-(2-oxaspiro[3.5]nonan-7-yl)pyrrolo[2,1-f][1,2,4]triazin-2-amine] | 4.5 nM
COc1nc(N[C@H]2CCN(C(C)=O)C[C@H]2F)nn2ccc(-c3ccc4nnn(CC(F)(F)F)c4c3)c12 [Compound 916, 1-((3R,4S)-3-Fluoro-4-((4-methoxy-5-(1-(2,2,2-trifluoroethyl)-1H-benzo[d][1,2,3]triazol-6-yl)pyrrolo [2,1-f][1,2,4]triazin-2-yl)amino)piperidin-1-yl)ethan-1-one] | 1.4 nM
COc1nc(NC2CCC3(CC2)CN(C(C)=O)C3)nn2ccc(-c3ccc4ncnn4c3)c12 [Compound 196, 1-(7-((5-([1,2,4]Triazolo[1,5-a]pyridin-6-yl)-4-methoxypyrrolo[2,1-f][1,2,4]triazin-2-yl)amino)-2-azaspiro[3.5]nonan-2-yl)ethan-1-one] | 1.1 nM
